US20240408064A1, “RAS INHIBITORS, COMPOSITIONS AND METHODS OF USE THEREOF” (GENETOLEAD INC., priority 2021, published 2024)
pKd: −log10 of the molar value.

Target: HRas^G12V (Homo sapiens (Human), UniProt P01112, G12V)
Test: Dissociation constant by SPR
Format: binding
Procedure: SPR experiments were performed using the P4SPR from Affinité Instruments using Ni-NTA immobilization chips and his-tagged protein. Ni-NTA coated surfaces allow the immobilization of his-tagged proteins by chelation of histidine residues to the nickel ion. The sensor chip was inserted into a quad inlet model P4SPR (with 4 independent channels). Once the instrument was turned on, the baseline was stabilized by deionized (DI) water, followed by signal stabilization by the running buffer. His-tagged protein at 10 μg/mL was injected into all 4 channels of the P4SPR and was left to react for 20 min. The sensor chip was then washed with DI water. The lowest concentration of the ligand was injected into the channels of the P4SPR and was left to react for 10 min. The SPR shift was saved. Then, a higher concentration of the ligand was injected, and the sample injection steps were repeated until all 5 concentrations have been added. The KD of the binding interaction between the ligand and protein was determined by using the affinity curve fitting function in the P4SPR Control software.

Chain of HRas^G12V (P01112 1-166 G12V): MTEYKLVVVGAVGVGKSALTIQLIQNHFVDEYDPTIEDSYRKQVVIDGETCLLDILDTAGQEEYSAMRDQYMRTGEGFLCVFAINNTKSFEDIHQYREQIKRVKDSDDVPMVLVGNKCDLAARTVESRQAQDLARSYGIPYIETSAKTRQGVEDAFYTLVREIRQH

SMILES: CN(C)CC(=O)Nc1cccc(NC(=O)Cc2c[nH]c3cc(F)ccc23)c1 [compound 10097]
- pKd: 4.51
